# Experimental data as given in ChEMBL document CHEMBL5465560, “Selectivity Literature for EUbOPEN Chemogenomic Library” (2024).
# Experiments:
# [1] = molecular target: Protein arginine N-methyltransferase 6 (Homo sapiens, UniProt Q96LA8); experiment: Selectivity interaction (Methyltransferase screen (radiometric assays, panel of 8 PRMTs, 21 protein lysine methyltransferases, 3 DNA methyltransferases, and one RNA methyltransferase)) EUB0000272b PRMT6
# [2] = molecular target: T1, Mitogen-activated protein kinase kinase kinase 15 (Homo sapiens) (UniProt Q6ZN16); experiment: Selectivity interaction (KinomeScan (DiscoverX)) EUB0000655a MAP3K15; conditions: at 10 µM
# T1 sequence (whole entry): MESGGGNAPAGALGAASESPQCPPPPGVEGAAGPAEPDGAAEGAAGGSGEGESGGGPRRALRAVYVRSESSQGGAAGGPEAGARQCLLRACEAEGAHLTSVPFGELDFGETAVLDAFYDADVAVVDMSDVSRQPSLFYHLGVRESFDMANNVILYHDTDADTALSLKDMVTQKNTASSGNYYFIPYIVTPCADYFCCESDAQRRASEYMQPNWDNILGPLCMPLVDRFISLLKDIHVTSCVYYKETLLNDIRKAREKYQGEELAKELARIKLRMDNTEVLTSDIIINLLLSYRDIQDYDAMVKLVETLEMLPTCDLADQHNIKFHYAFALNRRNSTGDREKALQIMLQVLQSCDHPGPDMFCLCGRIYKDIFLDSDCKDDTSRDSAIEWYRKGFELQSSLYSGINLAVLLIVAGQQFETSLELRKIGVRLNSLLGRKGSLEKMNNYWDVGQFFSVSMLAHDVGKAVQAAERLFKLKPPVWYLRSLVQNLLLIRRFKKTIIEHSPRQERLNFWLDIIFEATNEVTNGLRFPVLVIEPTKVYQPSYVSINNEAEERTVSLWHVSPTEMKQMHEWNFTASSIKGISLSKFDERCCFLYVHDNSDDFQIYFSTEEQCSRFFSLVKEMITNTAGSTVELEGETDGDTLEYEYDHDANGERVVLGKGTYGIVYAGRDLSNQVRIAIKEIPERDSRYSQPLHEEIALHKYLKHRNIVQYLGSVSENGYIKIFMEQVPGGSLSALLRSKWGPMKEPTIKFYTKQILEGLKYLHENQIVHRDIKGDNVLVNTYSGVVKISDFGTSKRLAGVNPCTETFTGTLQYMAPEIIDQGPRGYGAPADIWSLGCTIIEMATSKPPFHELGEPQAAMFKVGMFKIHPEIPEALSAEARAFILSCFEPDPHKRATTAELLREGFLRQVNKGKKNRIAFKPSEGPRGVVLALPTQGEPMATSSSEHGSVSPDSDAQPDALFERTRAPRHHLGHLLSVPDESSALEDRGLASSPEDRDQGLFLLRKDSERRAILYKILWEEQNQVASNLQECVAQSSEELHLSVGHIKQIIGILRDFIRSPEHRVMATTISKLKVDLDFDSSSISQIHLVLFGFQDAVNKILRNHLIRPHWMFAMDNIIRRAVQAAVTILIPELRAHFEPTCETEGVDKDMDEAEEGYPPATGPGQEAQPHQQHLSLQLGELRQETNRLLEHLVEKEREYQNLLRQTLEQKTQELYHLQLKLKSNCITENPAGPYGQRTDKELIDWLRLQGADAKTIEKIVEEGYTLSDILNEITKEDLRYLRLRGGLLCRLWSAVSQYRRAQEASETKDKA
# [3] = molecular target: Tyrosine-protein kinase Lck (Homo sapiens, UniProt P06239); experiment: Selectivity interaction (Radiometric kinase assay (using 10 uM ATP)) EUB0000601a LCK
# [4] = molecular target: Ribosomal protein S6 kinase alpha-1 (Homo sapiens, UniProt Q15418); experiment: Selectivity interaction (ActivX KiNativ screen (kinase selectivity in THP-1 cell lysates)) EUB0000639a RPS6KA1; assay type: subcellular; conditions: lysate, at 0.2 µM
# [5] = molecular target: MAP/microtubule affinity-regulating kinase 3 (Homo sapiens) (UniProt P27448); experiment: Selectivity interaction (KinomeScan (DiscoverX)) EUB0001049a MARK3; conditions: at 1 µM
# [6] = molecular target: Death-associated protein kinase 1 (Homo sapiens, UniProt P53355); experiment: Selectivity interaction (Ambit KINOMEscan and KiNATiv profiling in Jurkat cells) EUB0000090b DAPK1; assay type: cell-based; conditions: at 1 µM
# [7] = molecular target: T2, Serine/threonine-protein kinase BRSK2 (Homo sapiens) (UniProt Q8IWQ3); experiment: Selectivity interaction (Kinase screening (Nanosyn)) EUB0000604a BRSK2
# T2 sequence (whole entry): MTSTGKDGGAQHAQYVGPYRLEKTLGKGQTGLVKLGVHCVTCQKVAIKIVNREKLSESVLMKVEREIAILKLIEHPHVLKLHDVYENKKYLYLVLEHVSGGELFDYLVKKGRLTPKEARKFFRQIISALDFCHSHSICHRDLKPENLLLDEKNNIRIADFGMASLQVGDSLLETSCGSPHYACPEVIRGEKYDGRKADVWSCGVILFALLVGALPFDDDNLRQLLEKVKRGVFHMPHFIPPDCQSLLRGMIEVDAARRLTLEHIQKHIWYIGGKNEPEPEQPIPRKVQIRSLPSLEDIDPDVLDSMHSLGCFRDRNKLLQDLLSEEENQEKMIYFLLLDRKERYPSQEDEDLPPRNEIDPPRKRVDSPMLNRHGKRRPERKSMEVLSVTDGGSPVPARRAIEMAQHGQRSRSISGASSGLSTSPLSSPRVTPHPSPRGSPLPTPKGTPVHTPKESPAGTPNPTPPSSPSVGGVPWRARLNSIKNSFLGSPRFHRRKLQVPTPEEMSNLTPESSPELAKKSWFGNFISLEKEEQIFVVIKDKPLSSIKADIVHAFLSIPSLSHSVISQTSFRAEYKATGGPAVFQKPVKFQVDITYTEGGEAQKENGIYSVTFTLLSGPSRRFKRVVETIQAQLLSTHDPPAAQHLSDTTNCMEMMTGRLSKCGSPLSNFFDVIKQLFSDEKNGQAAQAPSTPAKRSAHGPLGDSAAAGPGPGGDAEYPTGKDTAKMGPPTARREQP
# Sequence of Protein arginine N-methyltransferase 6 (Q96LA8 whole entry, looked up): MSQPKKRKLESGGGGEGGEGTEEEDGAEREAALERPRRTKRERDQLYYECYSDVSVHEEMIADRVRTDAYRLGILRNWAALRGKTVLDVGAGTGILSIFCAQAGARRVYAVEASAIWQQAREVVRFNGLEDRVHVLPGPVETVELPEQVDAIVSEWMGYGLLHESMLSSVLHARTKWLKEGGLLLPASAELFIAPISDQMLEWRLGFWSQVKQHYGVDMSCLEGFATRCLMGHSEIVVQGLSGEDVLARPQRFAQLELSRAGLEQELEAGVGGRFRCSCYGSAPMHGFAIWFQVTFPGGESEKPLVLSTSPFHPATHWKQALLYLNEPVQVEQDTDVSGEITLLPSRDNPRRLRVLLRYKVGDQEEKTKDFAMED
# Sequence of Tyrosine-protein kinase Lck (P06239 whole entry): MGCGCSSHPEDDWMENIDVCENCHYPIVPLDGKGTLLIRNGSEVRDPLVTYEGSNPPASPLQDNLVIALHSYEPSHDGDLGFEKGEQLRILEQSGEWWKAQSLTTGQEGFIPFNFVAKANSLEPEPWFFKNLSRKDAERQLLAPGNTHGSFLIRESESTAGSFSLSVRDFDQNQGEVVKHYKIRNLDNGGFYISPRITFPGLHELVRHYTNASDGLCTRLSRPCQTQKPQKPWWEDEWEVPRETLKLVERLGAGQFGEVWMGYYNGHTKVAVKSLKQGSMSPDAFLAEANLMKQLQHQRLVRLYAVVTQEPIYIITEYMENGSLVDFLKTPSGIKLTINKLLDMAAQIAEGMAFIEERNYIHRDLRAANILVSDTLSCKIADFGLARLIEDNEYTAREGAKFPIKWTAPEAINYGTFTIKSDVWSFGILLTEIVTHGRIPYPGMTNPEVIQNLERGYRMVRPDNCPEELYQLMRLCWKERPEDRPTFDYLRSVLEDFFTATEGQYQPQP
# Sequence of MAP/microtubule affinity-regulating kinase 3 (Homo sapiens) (P27448 whole entry, looked up): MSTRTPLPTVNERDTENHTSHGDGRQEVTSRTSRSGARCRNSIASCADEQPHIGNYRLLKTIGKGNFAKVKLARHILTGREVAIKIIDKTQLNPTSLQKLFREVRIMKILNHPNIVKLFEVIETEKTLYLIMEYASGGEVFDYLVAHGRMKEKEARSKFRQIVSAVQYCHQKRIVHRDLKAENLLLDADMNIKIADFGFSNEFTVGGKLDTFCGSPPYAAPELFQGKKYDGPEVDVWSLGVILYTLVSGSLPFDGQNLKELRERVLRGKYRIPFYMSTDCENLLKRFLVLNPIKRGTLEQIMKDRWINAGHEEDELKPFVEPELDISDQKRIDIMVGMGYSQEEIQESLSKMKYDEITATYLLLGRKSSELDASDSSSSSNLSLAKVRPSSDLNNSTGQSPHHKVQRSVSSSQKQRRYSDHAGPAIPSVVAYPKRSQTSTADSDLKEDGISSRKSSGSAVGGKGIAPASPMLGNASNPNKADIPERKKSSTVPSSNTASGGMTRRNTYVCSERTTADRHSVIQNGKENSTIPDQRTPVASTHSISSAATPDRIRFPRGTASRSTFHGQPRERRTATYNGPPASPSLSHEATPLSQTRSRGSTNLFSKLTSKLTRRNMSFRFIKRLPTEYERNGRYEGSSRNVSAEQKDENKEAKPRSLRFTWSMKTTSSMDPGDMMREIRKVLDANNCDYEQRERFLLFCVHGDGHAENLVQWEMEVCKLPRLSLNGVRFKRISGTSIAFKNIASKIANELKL
# Sequence of Ribosomal protein S6 kinase alpha-1 (Q15418 whole entry): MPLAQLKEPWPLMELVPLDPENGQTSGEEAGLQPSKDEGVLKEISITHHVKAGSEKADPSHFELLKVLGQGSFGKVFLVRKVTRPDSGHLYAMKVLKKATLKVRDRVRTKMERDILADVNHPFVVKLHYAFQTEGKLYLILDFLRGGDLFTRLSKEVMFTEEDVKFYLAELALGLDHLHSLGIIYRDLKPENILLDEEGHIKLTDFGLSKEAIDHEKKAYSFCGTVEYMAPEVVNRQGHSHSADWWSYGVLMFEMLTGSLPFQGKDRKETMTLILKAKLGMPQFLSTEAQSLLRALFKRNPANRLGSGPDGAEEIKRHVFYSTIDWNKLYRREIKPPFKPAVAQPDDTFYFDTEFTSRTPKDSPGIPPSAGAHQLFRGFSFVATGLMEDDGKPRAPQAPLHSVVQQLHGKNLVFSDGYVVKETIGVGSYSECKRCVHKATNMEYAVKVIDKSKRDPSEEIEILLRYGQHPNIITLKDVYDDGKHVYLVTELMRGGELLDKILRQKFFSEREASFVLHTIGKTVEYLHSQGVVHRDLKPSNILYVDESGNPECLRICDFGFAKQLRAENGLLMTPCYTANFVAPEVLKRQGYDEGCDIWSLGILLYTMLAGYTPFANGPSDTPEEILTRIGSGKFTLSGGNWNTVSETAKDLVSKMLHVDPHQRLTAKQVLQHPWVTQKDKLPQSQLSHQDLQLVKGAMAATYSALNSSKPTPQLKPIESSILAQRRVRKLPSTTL
# Sequence of Death-associated protein kinase 1 (P53355 whole entry, looked up): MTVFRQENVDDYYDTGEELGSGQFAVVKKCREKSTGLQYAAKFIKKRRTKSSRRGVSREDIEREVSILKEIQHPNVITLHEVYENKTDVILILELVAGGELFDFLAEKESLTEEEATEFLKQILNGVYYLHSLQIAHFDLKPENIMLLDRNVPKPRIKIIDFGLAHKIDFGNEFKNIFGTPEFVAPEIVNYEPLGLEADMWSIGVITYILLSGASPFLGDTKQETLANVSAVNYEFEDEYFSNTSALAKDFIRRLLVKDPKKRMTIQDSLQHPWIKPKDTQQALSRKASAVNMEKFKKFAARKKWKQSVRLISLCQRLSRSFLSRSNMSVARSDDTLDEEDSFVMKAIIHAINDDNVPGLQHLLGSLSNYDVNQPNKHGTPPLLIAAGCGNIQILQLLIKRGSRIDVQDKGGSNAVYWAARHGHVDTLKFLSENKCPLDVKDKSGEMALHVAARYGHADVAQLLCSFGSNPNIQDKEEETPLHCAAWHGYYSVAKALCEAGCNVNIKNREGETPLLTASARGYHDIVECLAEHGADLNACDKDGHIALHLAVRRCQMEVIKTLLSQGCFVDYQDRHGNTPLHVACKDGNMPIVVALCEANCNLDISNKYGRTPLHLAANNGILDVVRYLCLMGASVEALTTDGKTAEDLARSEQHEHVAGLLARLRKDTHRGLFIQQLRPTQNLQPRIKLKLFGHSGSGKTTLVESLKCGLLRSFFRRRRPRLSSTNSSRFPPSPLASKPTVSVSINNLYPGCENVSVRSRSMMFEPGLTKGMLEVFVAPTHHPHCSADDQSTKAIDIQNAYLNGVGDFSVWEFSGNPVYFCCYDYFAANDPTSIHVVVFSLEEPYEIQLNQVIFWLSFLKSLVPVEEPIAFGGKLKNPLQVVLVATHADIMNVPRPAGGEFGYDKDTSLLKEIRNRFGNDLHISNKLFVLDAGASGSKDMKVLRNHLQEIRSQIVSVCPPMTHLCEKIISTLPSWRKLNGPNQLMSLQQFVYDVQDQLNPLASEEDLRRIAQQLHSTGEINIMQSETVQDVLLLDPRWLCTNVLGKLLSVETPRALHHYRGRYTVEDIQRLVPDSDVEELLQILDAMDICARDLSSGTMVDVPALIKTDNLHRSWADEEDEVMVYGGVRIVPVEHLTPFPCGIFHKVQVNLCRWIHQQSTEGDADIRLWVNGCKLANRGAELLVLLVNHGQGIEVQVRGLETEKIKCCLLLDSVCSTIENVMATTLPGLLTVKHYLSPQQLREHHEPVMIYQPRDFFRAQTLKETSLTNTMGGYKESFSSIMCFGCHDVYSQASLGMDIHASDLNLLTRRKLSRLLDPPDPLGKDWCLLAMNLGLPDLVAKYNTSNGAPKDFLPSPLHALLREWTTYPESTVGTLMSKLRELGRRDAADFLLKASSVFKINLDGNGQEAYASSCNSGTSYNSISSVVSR
compound,measurement,setting,value
Cc1cc(C)cc([C@H]2c3cc(C)ccc3NC(=O)CN2C(=O)c2ccc(Br)s2)c1,% of activity,[1]; at 1 µM,92.3%
same,% of activity,[1]; at 10 µM,92.7%
CN(C)CCOc1ccc(-c2nc(-c3ccncc3)c(-c3ccc4c(c3)CC/C4=N\O)[nH]2)cc1,% of control,[2],100%
CCc1cc(Nc2nccc(-c3c(-c4ccc(OC)c(C(=O)Nc5c(F)cccc5F)c4)nc4ccccn34)n2)c(OC)cc1N1CCC(N2CCN(S(C)(=O)=O)CC2)CC1,IC50,[3],> 3 µM
CC[C@@H]1[C@H](F)C(=O)N[C@@H]1COc1nccc2cc(C(N)=O)c(OC)cc12 [ZIMLOVISERTIB],% of inhibition,[4],13.8%
COc1cc(Nc2nc(C)cc(-c3cnn4nc(OC)ccc34)n2)cc(C(F)(F)F)c1,% of control,[5],77%
CN(C)C/C=C/C(=O)Nc1ccc(C(=O)N2CCCC(Nc3ncc(Cl)c(-c4c[nH]c5ccccc45)n3)C2)cc1 (stereo not drawn),% of control,[6],80%
Cc1cnc(Nc2ccc(F)cc2Cl)nc1-c1c[nH]c(C(=O)N[C@H](CO)c2cccc(Cl)c2)c1,% of inhibition,[7],2%
